In ChEMBL document CHEMBL1143547, “Fluorescence resonance energy transfer studies of aminoglycoside binding to a T box antiterminator RNA” (Bioorg Med Chem Lett, 2005) one finds Frel and Kd data, which are given here for 10 compounds.

One data set relates to Nucleic Acid. Briefly: Maximum Frel value for binding to 3'-Fl-AM1A-Rhd in Bacillus subtilis tyr.
The next data set concerns the target Bacillus subtilis. Briefly: Binding dissociation constant towards 3'-Fl-AM1A-Rhd in Bacillus subtilis tyrS. The format is functional.

In general, Kd refers to the concentration at which binding is half-saturated. For the compound `NC[C@@H]1O[C@H](O[C@H]2[C@@H](O)[C@H](O[C@@H]3[C@@H](O)[C@H](N)C[C@H](N)[C@H]3O[C@H]3O[C@H](CO)[C@@H](O)[C@H](O)[C@H]3N)O[C@@H]2CO)[C@H](N)[C@@H](O)[C@@H]1O` [PAROMOMYCIN], the Frel in the data set on Nucleic Acid turned out to be 0.41. On Bacillus subtilis, this compound had an equilibrium dissociation constant (Kd) of 50 µM.
In the data set with Nucleic Acid, `CN[C@@H]1[C@@H](O)[C@@H](O[C@@H]2[C@@H](O)[C@H](O[C@H]3O[C@H]([C@@H](C)NC)CC[C@H]3N)[C@@H](N)C[C@H]2N)OC[C@]1(C)O` [GENTAMICIN C1] returned a Frel of 0.8. In addition, the Kd at Bacillus subtilis was 120 µM.
In the data set with Nucleic Acid, `CN[C@@H]1[C@@H](O)[C@@H](O[C@@H]2[C@@H](O)[C@H](O[C@H]3O[C@H](C(C)N)CC[C@H]3N)[C@@H](N)C[C@H]2N)OC[C@]1(C)O` (stereo partly drawn) [GENTAMICIN C2] registered a Frel of 0.8. At Bacillus subtilis, the affinity, expressed as Kd, was 120 µM.
With `NC[C@@H]1O[C@@H](O[C@H]2[C@H](O)[C@@H](O[C@H]3O[C@H](CO)[C@@H](O)[C@H](N)[C@H]3O)[C@H](N)C[C@@H]2N)[C@@H](O)[C@H](O)[C@H]1O` [KANAMYCIN A], the Kd on Bacillus subtilis was 210 µM.
As for `NC[C@H]1O[C@H](O[C@H]2[C@H](O)[C@@H](O[C@H]3O[C@H](CO)[C@@H](O)[C@H](N)[C@H]3O)[C@H](N)C[C@@H]2N)[C@H](O)[C@@H](O)[C@@H]1O` [KANAMYCIN A], in the data set on Nucleic Acid, the Frel stood at 0.21.
Compound `[H]/N=C(/N)N[C@H]1[C@H](O)[C@@H](O)[C@H](O[C@@H]2O[C@@H](C)[C@](O)(C=O)[C@H]2O[C@@H]2O[C@@H](CO)[C@H](O)[C@@H](O)[C@@H]2NC)[C@@H](N/C(N)=N\[H])[C@@H]1O` (stereo in doubt) [STREPTOMYCIN] gave a Frel in the data set with Nucleic Acid of 0.34. At Bacillus subtilis, this compound came in with an equilibrium dissociation constant (Kd) of 790 µM.
In the data set on Nucleic Acid, `NC[C@@H]1O[C@H](O[C@H]2[C@@H](O)[C@H](O[C@@H]3[C@@H](O)[C@H](N)C[C@H](N)[C@H]3O[C@H]3O[C@H](CN)[C@@H](O)[C@H](O)[C@H]3N)O[C@@H]2CO)[C@H](N)[C@@H](O)[C@@H]1O` [FRAMYCETIN] returned a Frel of 0.46. The same compound showed a Kd on Bacillus subtilis of 8.5 µM.
Taken in the same sequence, the figures for `NCCC(O)C(=O)N[C@@H]1C[C@H](N)[C@@H](O[C@H]2O[C@H](CN)[C@@H](O)[C@H](O)[C@H]2O)[C@H](O)[C@H]1O[C@H]1O[C@H](CO)[C@@H](O)[C@H](N)[C@H]1O` (single isomer, unassigned) [AMIKACIN] were 0.29 and 760 µM.
Compound `NC[C@H]1O[C@H](O[C@H]2[C@H](O)[C@@H](O[C@H]3O[C@H](CO)[C@@H](O)[C@H](N)[C@H]3O)[C@H](N)C[C@@H]2N)[C@H](N)[C@@H](O)[C@@H]1O` [BEKANAMYCIN] displayed a Frel with Nucleic Acid of 0.38. At Bacillus subtilis, this compound gave a Kd of 150 µM.
`NC[C@H]1O[C@H](O[C@H]2[C@H](O)[C@@H](O[C@H]3O[C@H](CO)[C@@H](O)[C@H](N)[C@H]3O)[C@H](N)C[C@@H]2N)[C@H](N)C[C@@H]1O` [TOBRAMYCIN] had a Frel in the data set on Nucleic Acid of 0.33. At Bacillus subtilis, this compound returned a Kd of 38 µM.
